Assays:
wheat = test: Test A postemergence; type: in vivo, Triticum aestivum
Method in brief: (§1)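 Greenhouse pot test, loam/sand soil. Formulation: non-phytotoxic solvent mix plus surfactant. Pre: directed spray onto soil after sowing. Post: plants at 1–2 leaf, 2–10 cm. Rated visually vs untreated controls at ~10 d, 0 (no effect) to 100 (complete control).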

velvetleaf [1] = test: Test C postemergence; type: in vivo, Abutilon theophrasti; conditions: for Plant response rating, Velvetleaf: scale 0 to 100 (0 no effect, 100 complete control)
Method in brief: (§2)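 Plants were kept under greenhouse conditions for 13–15 days following spray. Pre-emergent application went to soil (loam–sand), post-emergent to foliage at 1–4 leaves. Evaluation: visual, percent control against untreated checks.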

giant foxtail = test: Test C preemergence; type: in vivo, Setaria faberii; conditions: for Foxtail, Giant plant response rating: preemergence; for Plant response rating, Foxtail, Giant: Preemergence, 31 g ai/ha, scale 0 to 100, 0 no effect, 100 complete control
Method in brief: as §2

pigweed [2] = test: Test A preemergence; type: in vivo, Amaranthus retroflexus; conditions: for Pigweed plant response rating: 0 to 100 scale, 0 no effect, 100 complete control, approx. 10 days
Method in brief: as §1

oilseed rape = test: Test C postemergence; type: in vivo, Brassica napus; conditions: for Plant response rating, Oilseed Rape: scale 0 to 100 (0 no effect, 100 complete control)
Method in brief: as §2

ragweed [3] = test: Test C preemergence; type: in vivo, Ambrosia elatior; conditions: for Ragweed plant response rating: preemergence; for Plant response rating, Ragweed: Preemergence, 31 g ai/ha, scale 0 to 100, 0 no effect, 100 complete control
Method in brief: as §2

morningglory = test: Test A preemergence; type: in vivo, Ipomoea spp.; conditions: for Morningglory plant response rating: 0 to 100 scale, 0 no effect, 100 complete control, approx. 10 days
Method in brief: as §1

ragweed [4] = test: Test C postemergence; type: in vivo, Ambrosia elatior; conditions: for Plant response rating, Ragweed: scale 0 to 100 (0 no effect, 100 complete control)
Method in brief: as §2

soybean = test: Test C preemergence; type: in vivo, Glycine max; conditions: for Soybean plant response rating: preemergence; for Plant response rating, Soybean: Preemergence, 31 g ai/ha, scale 0 to 100, 0 no effect, 100 complete control
Method in brief: as §2

large (Lg) crabgrass = test: Test A preemergence; type: in vivo, Digitaria sanguinalis
Method in brief: as §1

galium = test: Test C postemergence; type: in vivo, Galium aparine
Method in brief: as §2

johnsongrass = test: Test C preemergence; type: in vivo, Sorghum halepense; conditions: for Johnsongrass plant response rating: preemergence; for Plant response rating, Johnsongrass: Preemergence, 31 g ai/ha, scale 0 to 100, 0 no effect, 100 complete control
Method in brief: as §2

corn = test: Test A postemergence; type: in vivo, Zea mays
Method in brief: as §1

waterhemp = test: Test C preemergence; type: in vivo, Amaranthus rudis; conditions: for Waterhemp plant response rating: preemergence; for Plant response rating, Waterhemp: Preemergence, 31 g ai/ha, scale 0 to 100, 0 no effect, 100 complete control
Method in brief: as §2

velvetleaf [5] = test: Test A preemergence; type: in vivo, Abutilon theophrasti
Method in brief: as §1

pigweed [6] = test: Test C postemergence; type: in vivo, Amaranthus retroflexus; conditions: for Plant response rating, Pigweed: scale 0 to 100 (0 no effect, 100 complete control)
Method in brief: as §2

[7] = 1000 g ai/ha, 0 to 100 scale, 0 no effect, 100 complete control
[8] = 16 g ai/ha, postemergence, 0 is no effect, 100 is complete control
[9] = 125 g ai/ha, postemergence, visual rating
[10] = 16 g ai/ha, scale 0 to 100 (0 no effect, 100 complete control)
[11] = 62 g ai/ha, scale 0 (no effect) to 100 (complete control)
[12] = 125 g ai/ha, scale 0 (no effect) to 100 (complete control)
[13] = Postemergence, 62 g ai/ha, scale 0 to 100 (0 no effect, 100 complete control)
[14] = 125 g ai/ha, 0 to 100 scale where 0 is no effect and 100 is complete control
[15] = 500 g ai/ha, 0 to 100 scale where 0 is no effect and 100 is complete control
[16] = Postemergence, 31 g ai/ha, 13 to 15 days

In the case of N#Cc1cn(-c2c(Br)cccc2Oc2ncc(Cl)cn2)nn1 [Compound 116], the “Plant response rating, Wheat” value (wheat; [7]) is reported as 50, the “Plant response rating (0 to 100), Velvetleaf” value (velvetleaf [1]; [8]) is reported as 25 and the “Plant response rating, Velvetleaf” value (velvetleaf [1]; [9]) is reported as 85. For the same compound, the “Plant response rating, Velvetleaf” value (velvetleaf [1]; Postemergence, 62 g ai/ha) was 60, the “Foxtail, Giant plant response rating” value (giant foxtail; [10]) was 0 and the “Foxtail, Giant plant response rating” value (giant foxtail; [11]) was 85. For the same compound, the “Foxtail, Giant plant response rating” value (giant foxtail; [12]) was 95, the “Plant response rating, Foxtail, Giant” value (giant foxtail) was 10 and the “Pigweed plant response rating” value (pigweed [2]; 1000 g ai/ha) was 100. The “Plant response rating (0 to 100), Oilseed Rape” value (oilseed rape; [8]) was 5, the “Plant response rating, Oilseed Rape” value (oilseed rape; [9]) was 40 and the “Plant response rating, Oilseed Rape” value (oilseed rape; Postemergence, 62 g ai/ha) was 10. The “Ragweed plant response rating” value (ragweed [3]; [10]) was 0, the “Ragweed plant response rating” value (ragweed [3]; [11]) was 45 and the “Ragweed plant response rating” value (ragweed [3]; [12]) was 45. For the same compound, the “Plant response rating, Ragweed” value (ragweed [3]) was 5, the “Morningglory plant response rating” value (morningglory; 1000 g ai/ha) was 100 and the “Plant response rating (0 to 100), Ragweed” value (ragweed [4]; [8]) was 5. For the same compound, the “Plant response rating, Ragweed” value (ragweed [4]; [9]) was 70, the “Plant response rating, Ragweed” value (ragweed [4]; Postemergence, 62 g ai/ha) was 25 and the “Soybean plant response rating” value (soybean; [10]) was 0. The “Soybean plant response rating” value (soybean; [11]) was 40, the “Soybean plant response rating” value (soybean; [12]) was 70 and the “Plant response rating, Soybean” value (soybean) was 25. For the same compound, the “Plant response rating, Crabgrass, Large” value (large (Lg) crabgrass; [7]) was 100, the “Plant response rating (0 to 100), Galium” value (galium; [8]) was 55 and the “Plant response rating, Galium” value (galium; 125 g ai/ha, postemergence, visual rating, scale 0 to 100 (0 no effect, 100 complete control)) was 80. For the same compound, the “Plant response rating, Galium” value (galium; [13]) was 80, the “Johnsongrass plant response rating” value (johnsongrass; [10]) was 0 and the “Johnsongrass plant response rating” value (johnsongrass; [11]) was 55. The “Johnsongrass plant response rating” value (johnsongrass; [12]) was 70, the “Plant response rating, Johnsongrass” value (johnsongrass) was 25 and the “Plant response rating, Corn” value (corn; [7]) was 60. The “Waterhemp plant response rating” value (waterhemp; [10]) was 100, the “Waterhemp plant response rating” value (waterhemp; [11]) was 100 and the “Waterhemp plant response rating” value (waterhemp; [12]) was 100. For the same compound, the “Plant response rating, Waterhemp” value (waterhemp) was 100, the “Velvetleaf plant response rating” value (velvetleaf [5]; 1000 g ai/ha, 0 to 100 scale, 0 no effect, 100 complete control, approx. 10 days) was 100 and the “Plant response rating (0 to 100), Pigweed” value (pigweed [6]; [8]) was 80. The “Plant response rating, Pigweed” value (pigweed [6]; [9]) was 95 and the “Plant response rating, Pigweed” value (pigweed [6]; Postemergence, 62 g ai/ha) was 90.
With CCOc1cnn(-c2c(C#N)cccc2Oc2ncc(Cl)cn2)c1 [Compound 92] the “Plant response rating, Wheat” value (wheat; [14]) was 60, the “Plant response rating, Wheat” value (wheat; [15]) was 70 and the “Plant response rating (0 to 100), Velvetleaf” value (velvetleaf [1]; 125 g ai/ha, postemergence) was 60. The “Plant response rating, Velvetleaf” value (velvetleaf [1]; [16]) was 45, the “Plant response rating, Velvetleaf” value (velvetleaf [1]; Postemergence, 62 g ai/ha) was 50 and the “Foxtail, Giant plant response rating” value (giant foxtail; [10]) was 30. The “Foxtail, Giant plant response rating” value (giant foxtail; [11]) was 100, the “Foxtail, Giant plant response rating” value (giant foxtail; [12]) was 100 and the “Plant response rating, Foxtail, Giant” value (giant foxtail) was 98. For the same compound, the “Plant response rating, Pigweed” value (pigweed [2]; [14]) was 100, the “Pigweed plant response rating” value (pigweed [2]; 500 g ai/ha) was 100 and the “Plant response rating (0 to 100), Oilseed Rape” value (oilseed rape; 125 g ai/ha, postemergence) was 70. For the same compound, the “Plant response rating, Oilseed Rape” value (oilseed rape; [16]) was 45, the “Plant response rating, Oilseed Rape” value (oilseed rape; Postemergence, 62 g ai/ha) was 60 and the “Ragweed plant response rating” value (ragweed [3]; [10]) was 10. The “Ragweed plant response rating” value (ragweed [3]; [11]) was 50, the “Ragweed plant response rating” value (ragweed [3]; [12]) was 85 and the “Plant response rating, Ragweed” value (ragweed [3]) was 5. For the same compound, the “Plant response rating, Morningglory” value (morningglory; [14]) was 90, the “Morningglory plant response rating” value (morningglory; 500 g ai/ha) was 100 and the “Plant response rating (0 to 100), Ragweed” value (ragweed [4]; 125 g ai/ha, postemergence) was 55. For the same compound, the “Plant response rating, Ragweed” value (ragweed [4]; [16]) was 40, the “Plant response rating, Ragweed” value (ragweed [4]; Postemergence, 62 g ai/ha) was 50 and the “Soybean plant response rating” value (soybean; [10]) was 30. For the same compound, the “Soybean plant response rating” value (soybean; [11]) was 80, the “Soybean plant response rating” value (soybean; [12]) was 95 and the “Plant response rating, Soybean” value (soybean) was 65. The “Plant response rating, Crabgrass, Large” value (large (Lg) crabgrass; [14]) was 100, the “Crabgrass, Large plant response rating” value (large (Lg) crabgrass; 500 g ai/ha, 0 to 100 scale, 0 no effect, 100 complete control, approx. 10 days) was 100 and the “Galium plant response rating” value (galium; 16 g ai/ha, postemergence, visual rating, scale 0 to 100 (0 no effect, 100 complete control), 13 to 15 days) was 70. For the same compound, the “Plant response rating (0 to 100), Galium” value (galium; 125 g ai/ha, postemergence) was 80, the “Plant response rating, Galium” value (galium; Postemergence, 31 g ai/ha, scale 0 to 100 (0 no effect, 100 complete control), 13 to 15 days) was 80 and the “Plant response rating, Galium” value (galium; [13]) was 65. For the same compound, the “Johnsongrass plant response rating” value (johnsongrass; [10]) was 0, the “Johnsongrass plant response rating” value (johnsongrass; [11]) was 70 and the “Johnsongrass plant response rating” value (johnsongrass; [12]) was 85. The “Plant response rating, Johnsongrass” value (johnsongrass) was 5, the “Plant response rating, Corn” value (corn; [14]) was 50 and the “Plant response rating, Corn” value (corn; [15]) was 80. For the same compound, the “Waterhemp plant response rating” value (waterhemp; [10]) was 95, the “Waterhemp plant response rating” value (waterhemp; [11]) was 100 and the “Waterhemp plant response rating” value (waterhemp; [12]) was 100. The “Plant response rating, Waterhemp” value (waterhemp) was 98, the “Plant response rating, Velvetleaf” value (velvetleaf [5]; [14]) was 100 and the “Plant response rating (0 to 100), Pigweed” value (pigweed [6]; 125 g ai/ha, postemergence) was 75. The “Plant response rating, Pigweed” value (pigweed [6]; [16]) was 60 and the “Plant response rating, Pigweed” value (pigweed [6]; Postemergence, 62 g ai/ha) was 55.

— US9695155B2, “Herbicidal substituted pyrimidinyloxy benzene compounds” (E. I. DU PONT DE NEMOURS AND COMPANY, priority 2013, dated 2017)
